# Assay results: US7803836B2, “Aminophenylsulfonamide derivatives as HIV protease inhibitor” (priority 2005, dated 2010)
# Read-outs that look alike come from different tables or passages of the source.
# Legend:
# Assay in all cases: microbe, parasite or virus in culture
# Format in all cases: cell-based
# [1] = tested on: wild type laboratory HIV strain (WT IIIB-2-001); details: Human immunodeficiency virus 1, IIIB, 72 h, read-out: Virus Strains WT-IIIB-2-001
# Method: (§1) The compounds were tested in a cellular assay using the MT4-LTR-EGFP cells for anti-viral activity. […] Because of the increasing emergence of drug resistant HIV strains, the present compounds were tested for their potency against clinically isolated HIV strains harboring several mutations. […] The viral strains A, B, C and D contain mutations as indicated below in Table 3.
# (§2) The cellular assay was performed according to the following procedure. HIV- or mock-infected MT4-LTR-EGFP cells were incubated for three days in the presence of various concentrations of the compounds according to the invention. Upon infection, the viral tat protein activates the GFP reporter. At the end of the incubation period, the GFP signal was measured. […] The inhibitory activity of the compound was monitored on the virus-infected cells and was expressed as EC50. These values represent the amount of the compound required to protect 50% of the cells from virus infection.
# [2] = tested on: clinically isolated HIV strain B (B-2-001)
# Method: as §1, §2
# [3] = tested on: clinically isolated HIV strain D (D-2-001)
# Method: as §1, §2
# [4] = tested on: clinically isolated HIV strain C (C-2-001)
# Method: as §1, §2
# [5] = tested on: clinically isolated HIV strain A (A-2-001)
# Method: as §1, §2
# [6] = Human immunodeficiency virus 1, 72 h, read-out: Virus Strains B-2-001
# [7] = Human immunodeficiency virus 1, 72 h, read-out: Virus Strains D-2-001
# [8] = Human immunodeficiency virus 1, 72 h, read-out: Virus Strains C-2-001
# [9] = Human immunodeficiency virus 1, 72 h, read-out: Virus Strains A-2-001
SMILES,EC50 [1] [nM],"EC50 [2, 6] [nM]","EC50 [3, 7] [nM]","EC50 [4, 8] [nM]","EC50 [5, 9] [nM]","EC50 ([2]; Human immunodeficiency virus 1, read-out: pEC50-B (converted)) [nM]","EC50 ([3]; Human immunodeficiency virus 1, read-out: pEC50-D (converted)) [nM]","EC50 ([4]; Human immunodeficiency virus 1, read-out: pEC50-C (converted)) [nM]","EC50 ([5]; Human immunodeficiency virus 1, read-out: pEC50-A (converted)) [nM]"
"CC(C)CN1CC[C@H](Nc2cc(S(=O)(=O)N(CC(C)C)C[C@@H](O)[C@H](Cc3ccccc3)NC(=O)O[C@H]3CO[C@H]4OCC[C@H]43)ccc2N)C1 (stereo in doubt) [Compound 83, (3-{[4-amino-3-(1-isobutyl-pyrrolidin-3-ylamino)-benzenesulfonyl]-isobutyl-amino}-1-benzyl-2-hydroxy-propyl)-carbamic acid hexahydro-furo-[2,3-b]furan-3-yl ester]",26.3,129,75.9,16.6,3.39,,,,
"CC(C)CN(C[C@@H](O)[C@H](Cc1ccccc1)NC(=O)O[C@H]1CO[C@H]2OCC[C@H]21)S(=O)(=O)c1ccc(N)c(N[C@H]2CCN(C3CCCC3)C2)c1 (stereo in doubt) [Compound 79, (3-{[4-amino-3-(1-cyclopentyl-pyrrolidin-3-ylamino)-benzene-sulfonyl]-isobutyl-amino}-1-benzyl-2-hydroxy-propyl)-carbamic acid hexahydrofuro[2,3-b]furan-3-yl ester]",66.1,275,38.9,50.1,20.9,,,,
"CC(C)CN(C[C@@H](O)[C@H](Cc1ccccc1)NC(=O)O[C@H]1CO[C@H]2OCC[C@H]21)S(=O)(=O)c1ccc(N)cc1 [TMC 114, (3R,3aS,6aR)-hexahydrofuro[2,3-b]furan-3-yl N-[(1S,2R)-1-benzyl-2-hydroxy-3-(N 1-isobutylsulfanilamido)propyl]carbamate, reference compound]",,,,,,851,4790,89.1,7.94
